In patent US20050181029A1, “Distributed drug dispensing matrix as a transdermal patch” (priority 2004, published 2005):

Experiments:
Type in all cases: in vitro ADME, pig
[1] = Polymer (polyurethane) array assembly, mannitol skin permeability; details: polyurethane arrays, reservoirs 6 to 2 mm, relative to 6 mm reservoir; 0.5% SLS in PBS; 24 hrs; no clamping
Protocol: Polymer (Polyurethane) Array Assembly: Skin was placed in a PBS receiver fluid (10 ml) such that PBS contacted the skin on all sides and the bottom but not the top (FIG. 5). An array of liquid reservoirs was created by punching circular holes in a matrix pattern in a polyurethane slab (thickness=5 mm). These holes were separated from each other by one diameter. Such arrays were made for different size reservoirs (diameters in the range of 2-6 mm). The top surface of the skin was dried of any surface moisture. […]
Transdermal transport experiments were performed using mannitol as a model solute and sodium lauryl sulfate (SLS) as a model enhancer. […] Skin permeability in the skin exposed to reservoirs was calculated for each reservoir size by dividing the total amount delivered by the number of reservoirs, area of each reservoir, contact time, and mannitol concentration in each reservoir. Enhancement factors corresponding to various reservoir sizes were then calculated with reference to the permeability obtained from the largest reservoir (6 mm).
The enhancements are calculated with respect to the permeability obtained from a 6 mm reservoir.

[2] = Polycarbonate/teflon array assembly, mannitol delivery across skin vs Franz diffusion cell; details: reservoir size approaching 2.5 mm vs single 8 mm (16 mm diameter Franz cell) reservoir; 10 μCi/mL 3H-mannitol in 0.5% SLS in PBS; 24 hours
Protocol: The present invention is a novel transdermal drug delivery patch with an array of spatially organized reservoirs. In order to verify the validity of our invention we used three different assemblies, simulating the proposed matrix patch, that in essence provide the same working principle. All experiments were performed using pig skin. Skin was harvested from pigs (15) and was stored at −70° C. until the time of experiments. Skin was thawed at room temperature just before using it for experiments. A brief discussion of the experimental system used for the three cases follows. I. Polycarbonate/Teflon Array Assembly: This assembly consists of two plates made of polycarbonate/teflon—a donor plate and a receiver plate. The top plate (donor plate) has through holes (wells) drilled in it, each of which acts as an isolated donor chamber. The bottom plate (receiver plate) also has holes (wells) drilled in the same pattern as the donor plate and simulates the receiver compartment. The skin is placed between the donor and receiver plate and the plate assembly is clamped using four screws. […] At the end of 24 hours samples were drawn from the receiver plate and analyzed in a liquid scintillation counter (Packard Tri-Carb 2100TR, Packard Instrument Company, Meriden, Conn.). […] The data was then analyzed to verify any effect of a distributed dispensing system on the amount of drug delivered across the skin. […]

[3] = Agar gel disc assembly on Franz diffusion cell, mannitol skin permeability; details: agar gel disks 16, 9, 5 and 3 mm, relative to 16 mm disk; 0.5% SLS in PBS; 24 hrs
Protocol: All experiments were performed using pig skin. Skin was harvested from pigs (15) and was stored at −70° C. until the time of experiments. Skin was thawed at room temperature just before using it for experiments. […] Agar Gel Disc Assembly: A third experimental system was used to assess the dependence of permeability on contact area. In this system, permeation of mannitol from gel disks was studied. For this purpose, agar gel disks were prepared by dissolving 0.5 gm agar (Becton Dickinson Microbiology Systems, Sparks, Md.) in 20 ml of 0.5% solution (w/v) SLS in PBS. 10 μCi/ml ^3H radiolabeled mannitol was added to the mixture. The mixture was heated until agar formed a viscous solution. The viscous mixture was allowed to settle into a gel by pouring it into a petri dish to form a circular disc of 3.5 mm thickness. Disks of various diameters (16, 9, 5, and 3 mm) were then cut using a punch. […] Receiver compartments were sampled over 24 hrs and concentration of radiolabeled mannitol in these samples was measured using a scintillation counter. Permeability was calculated for each reservoir size by dividing the total flux obtained by the number of reservoirs at that particular size. Enhancement factors were calculated by dividing the permeability obtained from a disk of a particular size with reference to permeability obtained from the largest disk (16 mm).

[4] = Patches holding agar gel disc reservoir arrays at constant area fraction, mannitol delivery; details: 3 mm reservoir array (28 reservoirs) vs one 16 mm reservoir; area fraction ~20%; skin area 10.25 cm^2; identical formulation
Excerpt: All enhancements are obtained by normalizing the amount delivered into the skin at any particular reservoir size to that delivered at 16 mm. Error bars correspond to one standard deviation (n=5).
To experimentally determine the enhancement obtained by reservoir arrays, we created patches holding reservoir arrays containing ^3H labeled mannitol as the model solute. These patches were created at varying reservoir sizes (16 mm, 9 mm, 5 mm and 3 mm). In these patches, the reservoirs were arranged in a square pattern with the center-to-center distance between two adjacent reservoirs set to twice the reservoir diameter. […] Keeping the area fraction the same for all the reservoir sizes (˜20%) drug reservoirs were placed on these skin pieces.

SMILES: OC[C@@H](O)[C@@H](O)[C@H](O)[C@H](O)CO [mannitol]
- mannitol permeability enhancement as a function of reciprocal of reservoir size [1]: permeability enhancement increases with inverse reservoir size
- amount of mannitol delivered across the skin per unit area, normalized to single continuous reservoir [2]: exceeding 10 fold
- mannitol permeability enhancement for varying reservoir sizes [3]: significant increase in permeability is observed with a decrease in disk diameter
- amount of mannitol delivered per unit macroscopic area, array vs single large reservoir [4]: about 11 times
